Experimental findings from patent US20230055237A1, “COMPOUNDS AND METHODS FOR THE TREATMENT OF CYSTIC FIBROSIS” (Flatley Discovery Lab, LLC, priority 2019, published 2023) are described below.

The target in this test is T1, CFTR (Homo sapiens, UniProt P13569, DEL508-508).
T1 construct: Primary CF airway epithelial cells were obtained from the UNC Cystic Fibrosis Tissue Procurement and Cell Culture Core; host or cells: primary CF airway epithelial cells, differentiated at the air-liquid interface
Description: Equivalent current assay in primary CF airway epithelial cells (NAUC, combination with 1st site corrector FDL169 or VX-809). As to conditions: 37° C., 24 h. The test is classed as cell-based. As for the experimental part: Primary CF airway epithelial cells were obtained from the UNC Cystic Fibrosis Tissue Procurement and Cell Culture Core. The cells are grown at 37° C. in a Heracell 150i incubator using growth media (BEGM, Fischer). […] Two days before the Ussing assay the mucus on the apical surface of the cells was aspirated after incubating with 200 μL of differentiation media for at least thirty (30) minutes. One day before the Ussing assay test compounds were added to the basolateral surface of the cells at various test concentrations dissolved in DMSO. Duplicate wells were prepared giving a n=3 or n=4 protocol.
Cells were treated for 24 hours with various combinations and concentrations of the test articles, reference standard (3 μM VX809 or 3 μM FDL169, positive control). Compounds stock solutions were prepared in DMSO and diluted 1/1000 into ALI media to their final assay concentration. Cells were treated with combination solutions (2 mL of each dilution) and incubated at 37° C. for 24 h.
For the equivalent current assay, cells on four Transwell (24-well) plates were treated. Each Transwell plate was filled with 200 μl of HBS on the apical surface and 2 ml on the basolateral surface. Plates were placed horizontally in a heated mount at 37° C., and equilibrated for several minutes. Resting current was measured for 15 min and then blocked by the apical addition of 5 μM benzamil. After 20 min, 10 μM forskolin and 1 μM VX770 were added to both the apical and basolateral side to stimulate CFTR. An increase in chloride current is seen as an upward deflection of the trace.
The raw data, current vs. time for the Ussing chamber (sampling interval: 10 s) and voltage vs. time and resistance vs. time for the equivalent current assay (sampling interval: 5 minutes) were transferred to Excel (Microsoft Office Professional, version 14.0.7106.5003) for analysis. […] This average is equivalent to the sum of the average forskolin activated and the average VX770-potentiated currents. The average current measured in vehicle (0.1% DMSO) treated cells, Iv, was subtracted from the current for the test article, ITA, or from the corrector reference standard VX809 (3 uM ISTD). For replicate measurements, the average vehicle subtracted response for the test article, was normalized to the average vehicle subtracted inhibitor response of the reference corrector VX809 (3 μM).
A second endpoint, for the equivalent current assay, evaluated was NAUC, the normalized area under the curve (AUC) measuring the response after addition of forskolin and VX770 to the time point right before the addition of the CFTR inhibitor. The AUC is effectively the average response multiplied by the duration of the response.
NAUCTA=[AUCTA−AUCV,ave]/[AUCVx809r,ave−AUCV,ave] (Equation 2).
Experiments were run with a minimum of n=4 replicates per concentration. Since the distribution for the ratio of two normal distributions is a Cauchy distribution, the median value must be used for the average and the average deviation must be used for the error of all normalized data.
E=Emin+(Emax−Emin)/(1+10^((LogEC5OS)*nH)) (Equation 3)

Setting [1] is: test compound 10 μM in combination with 1st site corrector VX-809 (3 μM).
The mark [2] stands for this setting: test compound 1 μM in combination with 1st site corrector FDL169 (3 μM).
Where [3] appears, read: test compound 3 μM in combination with 1st site corrector FDL169 (3 μM).
[4] abbreviates: test compound 10 μM in combination with 1st site corrector FDL169 (3 μM).
Setting [5] is: test compound 3 μM in combination with 1st site corrector VX-809 (3 μM).
Where [6] appears, read: test compound 1 μM in combination with 1st site corrector VX-809 (3 μM).

T1 sequence (P13569 with tags, fused parts or gaps DEL508-508): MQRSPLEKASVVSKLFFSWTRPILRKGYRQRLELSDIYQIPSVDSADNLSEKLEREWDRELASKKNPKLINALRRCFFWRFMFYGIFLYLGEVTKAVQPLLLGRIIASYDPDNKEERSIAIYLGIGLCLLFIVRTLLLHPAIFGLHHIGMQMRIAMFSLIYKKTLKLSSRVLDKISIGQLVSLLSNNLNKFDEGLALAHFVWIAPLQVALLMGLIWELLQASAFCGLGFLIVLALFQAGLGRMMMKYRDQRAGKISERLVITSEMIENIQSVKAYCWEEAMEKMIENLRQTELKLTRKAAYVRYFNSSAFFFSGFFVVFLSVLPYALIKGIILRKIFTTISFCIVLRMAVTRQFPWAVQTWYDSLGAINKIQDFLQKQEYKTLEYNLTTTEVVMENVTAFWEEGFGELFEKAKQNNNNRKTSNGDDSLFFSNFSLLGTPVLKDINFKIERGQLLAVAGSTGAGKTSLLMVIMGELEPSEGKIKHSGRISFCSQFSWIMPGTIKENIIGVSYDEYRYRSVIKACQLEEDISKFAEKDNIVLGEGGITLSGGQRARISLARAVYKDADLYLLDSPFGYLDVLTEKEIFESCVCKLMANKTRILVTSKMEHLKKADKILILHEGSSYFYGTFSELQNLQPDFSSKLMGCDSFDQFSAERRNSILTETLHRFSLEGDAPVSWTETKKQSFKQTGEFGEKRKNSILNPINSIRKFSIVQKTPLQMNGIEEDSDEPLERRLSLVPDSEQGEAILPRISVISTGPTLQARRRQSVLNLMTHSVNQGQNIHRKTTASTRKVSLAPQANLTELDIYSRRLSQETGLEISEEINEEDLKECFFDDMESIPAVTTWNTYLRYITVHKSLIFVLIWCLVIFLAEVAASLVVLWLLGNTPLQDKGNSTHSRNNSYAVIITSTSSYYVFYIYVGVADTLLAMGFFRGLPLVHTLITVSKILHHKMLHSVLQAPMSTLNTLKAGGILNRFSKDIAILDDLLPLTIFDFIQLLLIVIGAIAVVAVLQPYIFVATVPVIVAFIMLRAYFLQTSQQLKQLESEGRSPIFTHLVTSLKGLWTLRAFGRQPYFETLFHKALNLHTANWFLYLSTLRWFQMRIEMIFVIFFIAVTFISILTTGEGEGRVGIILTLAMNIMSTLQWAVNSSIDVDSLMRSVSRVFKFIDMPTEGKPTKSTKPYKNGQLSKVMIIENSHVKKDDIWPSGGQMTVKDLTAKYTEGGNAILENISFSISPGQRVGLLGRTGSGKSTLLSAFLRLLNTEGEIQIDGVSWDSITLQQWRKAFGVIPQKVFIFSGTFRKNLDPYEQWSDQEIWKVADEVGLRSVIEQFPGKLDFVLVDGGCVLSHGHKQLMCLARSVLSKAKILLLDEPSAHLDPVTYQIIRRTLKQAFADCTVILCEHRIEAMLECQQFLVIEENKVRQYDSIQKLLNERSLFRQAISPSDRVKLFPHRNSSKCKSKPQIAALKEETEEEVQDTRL

Regarding `O=C(Nc1cc(Cl)cc(Cl)c1)C1C(C(F)(F)c2ccccn2)NC2(C(=O)Nc3c(Cl)cc(Cl)cc32)C1C(=O)O` (stereo not drawn) [Example 72.b], the “Nauc @ 10 μM” value under setting [1] is on record as “+ (NAUC “+” refers to an observed NAUC <140% of positive control)”.
For `O=C(O)[C@H]1[C@@H](C(=O)N(CC2CC2)c2cccc(C(F)(F)F)c2)[C@H]2CC(F)(F)CN2[C@]12C(=O)Nc1c(Cl)cc(Cl)cc12` [Example 163], the “Nauc @ 1 μM” value under setting [2] is listed as “+++ (NAUC “+++” refers to an observed NAUC>170% of positive control)”. Under setting [3], the “Nauc @ 3 μM” value was “+++ (NAUC “+++” refers to an observed NAUC>170% of positive control)”. Under setting [4], the “Nauc @ 10 μM” value was “++ (NAUC “++” refers to an observed NAUC 170-140% of positive control)”.
Take `O=C(O)[C@H]1[C@@H](C(=O)N(CCO)c2cc(Cl)cc(Cl)c2)[C@H]2CC(F)(F)CN2[C@]12C(=O)Nc1c(Cl)cc(Cl)cc12` [Example 150]: under setting [2], the “Nauc @ 1 μM” value is on record as “+ (NAUC “+” refers to an observed NAUC <140% of positive control)”. Under setting [3], the “Nauc @ 3 μM” value is “+++ (NAUC “+++” refers to an observed NAUC>170% of positive control)”.
In the case of `CN(C(=O)[C@H]1[C@H]2CC(F)(F)CN2[C@]2(C(=O)Nc3c(Cl)cc(Cl)cc32)[C@H]1C(=O)NS(=O)(=O)c1ccccc1)c1cc(Cl)cc(Cl)c1` [Example 261, (1′R,2′S,3R,7a′R)-5,7-dichloro-N1′-(3,5-dichlorophenyl)-6′,6′-difluoro-N1′-methyl-2-oxo-N2′-(phenylsulfonyl)-1′,2′,5′,6′,7′,7a′-hexahydrospiro[indoline-3,3′-pyrrolizine]-1,2′-dicarboxamide], under setting [1], the “Nauc @ 10 μM” value is “+ (NAUC “+” refers to an observed NAUC <140% of positive control)”.
`O=C(Nc1cc(Cl)cc(Cl)c1)C1C2N(CCC2(F)F)C2(C(=O)Nc3c(Cl)cc(Cl)cc32)C1C(=O)O` (stereo not drawn) [Example 59]: the “Nauc @ 3 μM” value under setting [5] is “+ (NAUC “+” refers to an observed NAUC <140% of positive control)”. Further, the “Nauc @ 10 μM” value under setting [1] was “++ (NAUC “++” refers to an observed NAUC 170-140% of positive control)”.
Regarding `COc1cc(C(F)(F)F)cc(NC(=O)C2C3CC(F)(F)CN3C3(C(=O)Nc4c(Cl)cc(Cl)cc43)C2C(=O)O)n1` (single isomer, unassigned) [Example 80.7b.2, 5,7-dichloro-6′,6′-difluoro-1′-((6-methoxy-4-(trifluoromethyl)pyridin-2-yl)carbamoyl)-2-oxo-1′,2′,5′,6′,7′,7a′-hexahydrospiro[indoline-3,3′-pyrrolizine]-2′-carboxylic acid], the “Nauc @ 10 μM” value under setting [1] is given as “+ (NAUC “+” refers to an observed NAUC <140% of positive control)”.
On to `CN(C(=O)C1C2CC(F)(F)CN2C2(C(=O)Nc3c(Cl)cc(Cl)cc32)C1C(=O)O)c1cc(C(F)(F)F)cc(C(F)(F)F)n1` (single isomer, unassigned) [Example 273a, 1′-((4,6-bis(trifluoromethyl)pyridin-2-yl)(methyl)carbamoyl)-5,7-dichloro-6′,6′-difluoro-2-oxo-1′,2′,5′,6′,7′,7a′-hexahydrospiro[indoline-3,3′-pyrrolizine]-2′-carboxylic acid], for which, under setting [2], the “Nauc @ 1 μM” value was “+ (NAUC “+” refers to an observed NAUC <140% of positive control)”. Moreover, the “Nauc @ 3 μM” value under setting [3] was “+ (NAUC “+” refers to an observed NAUC <140% of positive control)”.
`COCCN1C(=O)[C@]2(c3cc(Cl)cc(Cl)c31)[C@@H](C(=O)O)[C@@H](C(=O)N(CC1CC1)c1cc(Cl)cc(Cl)c1)[C@H]1CC(F)(F)CN12` [Example 203]: the “Nauc @ 1 μM” value under setting [2] is “+ (NAUC “+” refers to an observed NAUC <140% of positive control)”. For the same compound, the “Nauc @ 3 μM” value under setting [3] is reported as “+ (NAUC “+” refers to an observed NAUC <140% of positive control)”.
For `Cc1ccc(C(F)(F)C2NC3(C(=O)Nc4c(Cl)cc(Cl)cc43)C(C(=O)O)C2C(=O)Nc2cc(Cl)cc(Cl)c2)cc1` (stereo not drawn) [Example 71.a], under setting [1], the “Nauc @ 10 μM” value is recorded as “+++ (NAUC “+++” refers to an observed NAUC>170% of positive control)”.
`CN(C(=O)[C@H]1[C@@H](C(=O)NCC(F)(F)F)[C@]2(C(=O)Nc3c(Cl)cc(Cl)cc32)N2CC(F)(F)C[C@@H]12)c1cc(Cl)cc(Cl)c1` (single isomer, unassigned) [Example 232a]: under setting [6], the “Nauc @ 1 μM” value is “+ (NAUC “+” refers to an observed NAUC <140% of positive control)”. In addition, the “Nauc @ 3 μM” value under setting [5] is “+ (NAUC “+” refers to an observed NAUC <140% of positive control)”. For the same compound, the “Nauc @ 10 μM” value under setting [1] is recorded as “+ (NAUC “+” refers to an observed NAUC <140% of positive control)”.
For the compound `Cn1ccc(NC(=O)[C@H]2[C@@H](C(=O)Nc3cc(Cl)cc(Cl)c3)[C@H]3CCCN3[C@]23C(=O)Nc2c(Cl)cc(Cl)cc23)n1` (single isomer, unassigned) [Example 240, (1′R,2′S,7a′R)-5,7-dichloro-N1′-(3,5-dichlorophenyl)-N2′-(1-methyl-1H-pyrazol-3-yl)-2-oxo-1′,2′,5′,6′,7′,7a′-hexahydrospiro[indoline-3,3′-pyrrolizine]-1′,2′-dicarboxamide], the “Nauc @ 1 μM” value under setting [6] is recorded as “+ (NAUC “+” refers to an observed NAUC <140% of positive control)”. Besides, under setting [5], the “Nauc @ 3 μM” value is listed as “+ (NAUC “+” refers to an observed NAUC <140% of positive control)”. For the same compound, under setting [1], the “Nauc @ 10 μM” value is “+ (NAUC “+” refers to an observed NAUC <140% of positive control)”.
Take `O=C(Nc1cc(C(F)(F)F)ccn1)C1C2CCCN2C2(C(=O)Nc3c(Cl)cc(Cl)cc32)C1C(=O)O` (stereo not drawn) [Example 10]: the “Nauc @ 3 μM” value under setting [5] is recorded as “++ (NAUC “++” refers to an observed NAUC 170-140% of positive control)”. Besides, the “Nauc @ 10 μM” value under setting [1] was “++ (NAUC “++” refers to an observed NAUC 170-140% of positive control)”.
With `CC(C)(C)CN(C(=O)[C@H]1[C@@H](C(=O)O)[C@]2(C(=O)Nc3c(Cl)cc(Cl)cc32)N2CC3(CC3)C[C@@H]12)c1cc(Cl)cc(Cl)c1` (single isomer, unassigned) [Example 275.7b], the “Nauc @ 1 μM” value under setting [2] is reported as “+++ (NAUC “+++” refers to an observed NAUC>170% of positive control)”. Moreover, the “Nauc @ 3 μM” value under setting [3] is reported as “+++ (NAUC “+++” refers to an observed NAUC>170% of positive control)”. Besides, the “Nauc @ 10 μM” value under setting [4] was “++ (NAUC “++” refers to an observed NAUC 170-140% of positive control)”.
On to `CN(C(=O)[C@H]1[C@H]2CC(F)(F)CN2[C@]2(C(=O)Nc3c(Cl)cc(Cl)cc32)[C@H]1C(=O)OCOC(=O)C(C)(C)C)c1cc(Cl)cc(Cl)c1` (racemic) [Example 251a, rac-(pivaloyloxy)methyl (1′R,2′S,3R,7a′R)-5,7-dichloro-1-((3,5-dichlorophenyl)(methyl)carbamoyl)-6′,6′-difluoro-2-oxo-1′,2′,5′,6′,7′,7a′-hexahydrospiro[indoline-3,3′-pyrrolizine]-2′-carboxylate], for which the “Nauc @ 10 μM” value under setting [1] was “+ (NAUC “+” refers to an observed NAUC <140% of positive control)”.
For `CN(C(=O)[C@@H]1[C@H](C(F)(F)F)NC2(C(=O)Nc3c(Cl)cc(Cl)cc32)[C@@H]1C(=O)O)c1cc(Cl)cc(Cl)c1` (single isomer, unassigned) [Example 269a], under setting [6], the “Nauc @ 1 μM” value is “+ (NAUC “+” refers to an observed NAUC <140% of positive control)”. Under setting [5], the “Nauc @ 3 μM” value was “+ (NAUC “+” refers to an observed NAUC <140% of positive control)”. In addition, the “Nauc @ 10 μM” value under setting [1] is reported as “+ (NAUC “+” refers to an observed NAUC <140% of positive control)”.
Turning to `CONC(=O)[C@H]1[C@@H](C(=O)Nc2cc(Cl)cc(Cl)c2)[C@H]2C[C@](C)(O)CN2[C@]12C(=O)Nc1c(Cl)cc(Cl)cc12` [Example 246, (1′R,2′S,6′S,7a′R)-5,7-dichloro-N1′-(3,5-dichlorophenyl)-6′-hydroxy-N2′-methoxy-6′-methyl-2-oxo-1′,2′,5′,6′,7′,7a′-hexahydrospiro[indoline-3,3′-pyrrolizine]-1′,2′-dicarboxamide], the “Nauc @ 1 μM” value under setting [6] is “+ (NAUC “+” refers to an observed NAUC <140% of positive control)”. The “Nauc @ 3 μM” value under setting [5] is “+ (NAUC “+” refers to an observed NAUC <140% of positive control)”. The “Nauc @ 10 μM” value under setting [1] is on record as “+++ (NAUC “+++” refers to an observed NAUC>170% of positive control)”.
